From publication PMC10447463, “Data-mining unveils structure–property–activity correlation of viral infectivity enhancing self-assembling peptides” (Nature Communications, 2023)
Read-outs that look alike come from different tables or passages of the source.

Assays:
[1] = β-sheet content by ATR-FT-IR; assay type: physicochemical
Outline: (§1)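 1 mg/mL PNF solutions lyophilized and powders measured by diamond ATR FT-IR (2 cm^-1 resolution, 64 scans); β-sheet content calculated per a prior method. For CR, PNF solution centrifuged through 3 kDa MWCO filter (16200 x g, 4 °C, 45 min); filtrate and unfiltered sample lyophilized, dissolved in DMSO, reacted with fluorescamine.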

[2] = assay type: physicochemical
Outline: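 Fibrils (1 mg/mL solution) were mixed with 50 µM ThT in PBS for 15 min at RT, and fluorescence was read at λex 440/λem 488 nm against a PBS blank, as a triplicate mean ± SD. Zeta potential came from electrophoretic mobility (Smoluchowski) after 1 d aggregation at 1 mg/mL in PBS pH 7.4, diluted into 1 mM KCl.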

[3] = Conversion rate (CR) assay with fluorescamine; assay type: physicochemical
Outline: as §1

TZM-bl cells = assay type: cell-based; details: CellTiter-Glo, mean of n = 3 replicates; for viability 0.26 µM: peptide 0.26 µM; for viability 1.3 µM: peptide 1.3 µM; for viability 6.5 µM: peptide 6.5 µM
Outline: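 CellTiter-Glo luminescence, normalized to 100% metabolic activity, gave cytotoxicity readout for TZM-bl cells exposed to peptide serial dilutions for 3 days; 10,000 cells seeded, triplicate measurements.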

[4] = ThT fluorescence relative to blank, blank = 42.1851851851852
[5] = relative to blank 42.1851851851852 a.u.
[6] = ThT fluorescence relative to blank (42.1851851851852 a.u.)

Substance	FTIR ß-sheet content/ % ([1]; ATR-FT-IR) [%]	Tht rel to blank (42.1851851851852) [2, 4]	Tht category (> 1.5 to blank = +) ([2]; category 1/0)	Conversion Rate / % ([3]; fluorescamine assay) [%]	Tht rel to blank (42.1851851851852) [2, 5]	viability 0.26 µM (TZM-bl cells)	viability 1.3 µM (TZM-bl cells)	viability 6.5 µM (TZM-bl cells)	Tht category (> 1.5 to blank = +) ([2]; FigS26)	Tht rel to blank (42.1851851851852) [2, 6]	FTIR ß-sheet content/ % [1] [%]	Conversion Rate / % [3] [%]
HLHLPLL [CN14]	49.19	1.069	0 (ThT-inactive (N-Fold <2))	37.51								
KIKIKIKIWWWW [TM12]			1 (ThT. Cat is 1, if Rel. ThT >2)		2.303	125.9	106.4	86.48				
RGDKIKIQINMWQ [MG9a]			0 (ThT-inactive (N-Fold <2))		1.781	104.4	105.9	88.59	0 (Tht category (> 1.5 to blank = +))	1.781		
RLRLTLC [CN13]	20.69	1.899	0 (ThT-inactive (N-Fold <2))	87.44		120.7	120.4	108.4				
RGEKIKIQINM [CN18]	43.05	3.423	1 (ThT. Cat is 1, if Rel. ThT >2)	80.28		93.96	87.66	79.74				
RGECKFKFQF [CN16]	46.18	2.392	1 (ThT. Cat is 1, if Rel. ThT >2)	98.71		105.4	106.3	102.8				
EIEIQINMWQ [VH8]										4.145	53.91	89.92
RGDSGGGGGGKIKIQIC [TM114 / RC17]						105.8	97.96	78.89				
HHHHKAKAKAKAYYYY [TM10]		1.39	0 (ThT-inactive (N-Fold <2))			107.4	112.1	104.4				
EIEIQINM [TM95 / (TM75)]										1.473	53.87	79.85
CKIKIQIRGD [psis21]						104.5	107.1	97.19	0 (Tht category (> 1.5 to blank = +))			
RGDKIKIQINMC [psis29]			0 (ThT-inactive (N-Fold <2))		1.396	103.4	101.5	82.89		1.396		
RGDKIKIQINM [MG8a / CN17]	45.52	9.126	1 (ThT. Cat is 1, if Rel. ThT >2)	73.83	9.126	107.7	105.2	86.63		9.126	45.52	73.83
CKIKIQIII [AR0 / F19]			1 (ThT. Cat is 1, if Rel. ThT >2)		4.14	109.6	100.4	87.63				
KFKFQFFF [TG12]	49.11	2.58	1 (ThT. Cat is 1, if Rel. ThT >2)	97.92	2.58	108.2	109.4	97		2.58	49.11	97.92
HHHHKIKIQINMYYYY [TM16]	46.73	12.17	1 (ThT. Cat is 1, if Rel. ThT >2)	98.42		118.7	114.9	85.37				
HIHIQIC [CN12]	48.25	12.46	1 (ThT. Cat is 1, if Rel. ThT >2)	82.72		99.21	105	101.2				
KIKIKIKIWW [TM21]			1 (ThT. Cat is 1, if Rel. ThT >2)		3.538	95.22	94.23	80.72				
